Where “and” joins values, the source holds several entries; their conditions need not be identical. Equal values may be shown once.
Key:
FAP over PREP and DPP = system: FAP over PREP and DPP; design: method as in PMID 38999044; details: compared with DOTAGA.(SA.FAPi)2; cited from earlier work
FAP = system: FAP; design: method as in PMID 36980775; details: cited from earlier work
[1] = Stability of radiochemical purity (RCP) post-formulation by radio-HPLC; format: physicochemical; details: formulated in phosphate buffer (0.1 M, pH 7) with ethanol
Experimental: Gallium-68 chloride was obtained by eluting the ^68Ge/^68Ga generator (Galliapharm, Eckert & Ziegler, Berlin, Germany) with 0.1 M HCl. Ammonium acetate buffer (0.1 M, pH 5.5), and a DOTAGA-Glu(FAPi)2 stock solution (2 mg/mL) for labeling was prepared using water for ultratrace analysis (Merck, Darmstadt, Germany). [^68Ga]GaCl3 solution in 0.1 M HCl (500 µL, ca. 200 MBq ^68Ga) was mixed with ammonium acetate buffer (80 µL) and DOTAGA-Glu-(FAPi)2 stock solution (4 µL). The resulting mixture was placed on an agitating mixer and shaken at 600 rpm for 5 min at 60 °C. Afterward, the reaction mixture was diluted with 5 mL water and passed through a Strata-X 33 µm polymeric reversed-phase cartridge (Phenomenex, Torrance, CA, USA). The cartridge was rinsed with more water (0.3 mL) and eluted with absolute ethanol (0.5 mL). Ethanol was evaporated under nitrogen flow and gentle heating to 40 °C. The residue was resolubilized in an aliquot of fresh ethanol (20 µL) and further diluted with phosphate buffer (0.1 M, pH 7) to a total volume of 2 mL.
Radiochemical conversion (RCC) for the ^68Ga-labeling process and radiochemical purity (RCP) of the formulated [^68Ga]Ga-DOTAGA-Glu(FAPi)2 were assessed by radio-HPLC.

[2] = logD7.4, shake flask method with n-octanol and phosphate-buffered saline (pH 7.4); format: physicochemical; details: n-octanol / PBS pH 7.4, shake flask
Excerpt: The kinetic profile of [^68Ga]Ga-DOTAGA-Glu-(FAPi)2 is explained considering its low lipophilicity, estimated by measuring the logD7.4 value using the shake flask method with n-octanol and phosphate-buffered saline (pH 7.4). The logD7.4 of −2.5 ± 0.05 indicates good hydrophilicity, leading to renal excretion over biliary excretion. […] Moreover, the compound is more hydrophilic than the first-generation dimer [^68Ga]Ga-DOTAGA.(SA.FAPi)2 (−2.0 ± 0.1) ([25]), resulting in lower background uptake and higher tumor-to-background image contrast.

[3] = system: endogenously FAP-expressing xenografted mouse model, U87MG; experiment: In vivo PET/CT imaging, organ distribution in U87MG xenografted mice
Excerpt: Six-week-old female NMRI nude mice were purchased (Janvier, Le Genest-Saint-Isle, France) and housed in groups of 4–8 mice in individually ventilated cages under regular lighting conditions. They were fed a standard pathogen-free pellet diet and provided water ad libitum. All animal experiments were approved by The Animal Experiments Inspectorate in Denmark (2021-15-0201-01041). The animals were acclimatized for two weeks before study initiation.
To establish a tumor model, the mice were subcutaneously inoculated on the right flank with a human xenograft glioblastoma U87MG (HTB-14, ATCC, Manassas, VA, USA). These cells were cultivated in Dulbecco’s modified Eagle’s medium (DMEM) supplemented with fetal bovine serum (FBS) and penicillin–streptomycin (Pen/Strep). Tumor growth was monitored two times weekly using calipers.
After adequate tumor establishment, the animals were injected intravenously in the tail vein with 4.49 ± 0.04 MBq [^68Ga]Ga-DOTAGA-Glu(FAPi)2 in a 100 μL phosphate buffer (0.1 M, pH 7) with 1% ethanol (v/v). PET/CT imaging (Inveon, Siemens Healthineers, Knoxville, TN, USA) was performed immediately after injection, and PET data were acquired for 3000 s. The imaging protocol included a dynamic framing setup, with five consecutive frames of 600 s each, resulting in average time intervals of 0–10, 10–20, 20–30, 30–40, and 40–50 min post-injection. During imaging, body temperature was maintained using a heated platform.
PET images were reconstructed using the 3D-OSEM/SP-MAP algorithm, and attenuation correction was performed using the co-registered CT images. The activity concentration was decay-corrected to the time of injection and quantified using Inveon Research Workplace (IRW). Regions of interest were manually drawn on CT images to delineate organs and derive volume and activity. Subsequently, the percentage of injected dose per gram (% ID/g) was calculated for tumor, blood, liver, kidney, and muscle tissues for each frame.
All graphical representations of the data were generated using Prism version 10.1.0 (1994–2023, GraphPad Software, LLC, Boston, MA, USA). The results were expressed as the mean ± standard error of the mean (SEM).

[4] = 5 min post-injection, Mean±SEM, n = 4 mice
[5] = 5 min post-injection, individual mice M1-M4
[6] = 15 min post-injection, Mean±SEM, n = 4 mice
[7] = 15 min post-injection, individual mice M1-M4
[8] = 25 min post-injection, Mean±SEM, n = 4 mice
[9] = 25 min post-injection, individual mice M1-M4
[10] = 35 min post-injection, Mean±SEM, n = 4 mice
[11] = 35 min post-injection, individual mice M1-M4
[12] = 45 min post-injection, Mean±SEM, n = 4 mice, listed as [68Ga]Ga-DOTAGA-Glu-(FAPi)2
[13] = 45 min post-injection, Mean±SEM, n = 4 mice, listed as [^68Ga]Ga-DOTAGA-Glu-(FAPi)2
[14] = 45 min post-injection, individual mice M1-M4

N#C[C@@H]1CC(F)(F)CN1C(=O)CNC(=O)c1ccnc2ccc(OCCCCNC(=O)CC[C@H](NC(=O)CCC(C(=O)O)N3CCN(CC(=O)O)CCN(CC(=O)O)CCN(CC(=O)O)CC3)C(=O)NCCCCOc3ccc4nccc(C(=O)NCC(=O)N5CC(F)(F)C[C@H]5C#N)c4c3)cc12 (stereo partly drawn) [DOTAGA-Glu(FAPi)2, 2,2′,2″-(10-(4-(((S)-1,5-bis((4-((4-((2-((S)-2-Cyano-4,4-difluoropyrrolidin-1-yl)-2-oxoethyl)carbamoyl)quinolin-6-yl)oxy)butyl)amino)-1,5-dioxopentan-2-yl)amino)-1-carboxy-4-oxobutyl)-1,4,7,10-tetraazacyclododecane-1,4,7-triyl)triacetic acid]
selectivity for FAP over PREP and DPP (FAP over PREP and DPP): higher selectivity than DOTAGA.(SA.FAPi)2 | IC50 (FAP): 0.26 ± 0.04 nM

N#C[C@@H]1CC(F)(F)CN1C(=O)CNC(=O)c1ccnc2ccc(OCCCCNC(=O)CC[C@H](NC(=O)CCC(C(=O)O)N3CCN(CC(=O)[O-])CCN(CC(=O)[O-])CCN(CC(=O)[O-])CC3)C(=O)NCCCCOc3ccc4nccc(C(=O)NCC(=O)N5CC(F)(F)C[C@H]5C#N)c4c3)cc12.[68Ga+3] (some centres unmarked) [[^68Ga]Ga-DOTAGA-Glu(FAPi)2]
RCP stable post-formulation [1]: at least 1 h | logD7.4 [2]: −2.5 ± 0.05 | Organ distribution, bladder [3, 4]: 3.96±0.42 %ID/g | Organ distribution, kidney [3, 4]: 6.68±0.48 %ID/g | Organ distribution, liver [3, 4]: 5.83±0.58 %ID/g | Organ distribution, tumor [3, 4]: 2.55±0.38 %ID/g | Tumor-to-blood ratio (TBR) [3, 4]: 0.46±0.05 | Tumor-to-kidney ratio (TKR) [3, 4]: 0.38±0.03 | Tumor-to-liver ratio (TLR) [3, 4]: 0.43±0.03 | Tumor-to-muscle ratio (TMR) [3, 4]: 3.66±0.13 | Organ distribution, bladder [3, 5]: 4.80 %ID/g and 4.51 %ID/g and 3.00 %ID/g and 3.51 %ID/g | Organ distribution, blood [3, 5]: 5.98 %ID/g | Organ distribution, kidney [3, 5]: 7.50 %ID/g and 7.11 %ID/g and 6.77 %ID/g and 5.32 %ID/g | Organ distribution, liver [3, 5]: 6.93 %ID/g and 6.06 %ID/g and 6.15 %ID/g and 4.19 %ID/g | Organ distribution, tumor [3, 5]: 3.52 %ID/g and 2.54 %ID/g and 1.66 %ID/g | Tumor-to-blood ratio (TBR) [3, 5]: 0.59 and 0.42 and 0.37 and 0.44 | Tumor-to-kidney ratio (TKR) [3, 5]: 0.47 and 0.35 and 0.38 and 0.31 | Tumor-to-liver ratio (TLR) [3, 5]: 0.51 and 0.41 (2×) and 0.40 | Tumor-to-muscle ratio (TMR) [3, 5]: 3.52 and 3.35 and 3.91 and 3.86 | Organ distribution, bladder [3, 6]: 25±2.12 %ID/g | Organ distribution, kidney [3, 6]: 7.08±0.56 %ID/g | Organ distribution, liver [3, 6]: 4.02±0.15 %ID/g | Organ distribution, tumor [3, 6]: 4.28±0.37 %ID/g | Tumor-to-blood ratio (TBR) [3, 6]: 0.92±0.10 | Tumor-to-kidney ratio (TKR) [3, 6]: 0.61±0.05 | Tumor-to-liver ratio (TLR) [3, 6]: 1.06±0.07 | Tumor-to-muscle ratio (TMR) [3, 6]: 3.68±0.32 | Organ distribution, bladder [3, 7]: 20.10 %ID/g and 25.42 %ID/g and 30.39 %ID/g and 24.10 %ID/g | Organ distribution, blood [3, 7]: 4.04 %ID/g | Organ distribution, kidney [3, 7]: 6.09 %ID/g and 6.56 %ID/g and 8.67 %ID/g and 7.01 %ID/g | Organ distribution, liver [3, 7]: 3.79 %ID/g and 3.93 %ID/g and 4.45 %ID/g and 3.92 %ID/g | Organ distribution, tumor [3, 7]: 5.16 %ID/g and 3.44 %ID/g and 4.56 %ID/g | Tumor-to-blood ratio (TBR) [3, 7]: 1.04 and 0.69 and 1.13 and 0.84 | Tumor-to-kidney ratio (TKR) [3, 7]: 0.75 and 0.60 and 0.59 and 0.49 | Tumor-to-liver ratio (TLR) [3, 7]: 1.20 and 1.00 and 1.16 and 0.88 | Tumor-to-muscle ratio (TMR) [3, 7]: 3.40 and 3.28 and 4.65 and 3.37 | Organ distribution, bladder [3, 8]: 42.54±5.06 %ID/g | Organ distribution, kidney [3, 8]: 4.02±0.60 %ID/g | Organ distribution, liver [3, 8]: 3.21±0.11 %ID/g | Organ distribution, tumor [3, 8]: 4.49±0.45 %ID/g | Tumor-to-blood ratio (TBR) [3, 8]: 1.12±0.15 | Tumor-to-kidney ratio (TKR) [3, 8]: 1.14±0.07 | Tumor-to-liver ratio (TLR) [3, 8]: 1.40±0.12 | Tumor-to-muscle ratio (TMR) [3, 8]: 3.71±0.40 | Organ distribution, bladder [3, 9]: 31.21 %ID/g and 41.63 %ID/g and 55.86 %ID/g and 41.46 %ID/g | Organ distribution, blood [3, 9]: 3.66 %ID/g | Organ distribution, kidney [3, 9]: 3.47 %ID/g and 3.78 %ID/g and 5.77 %ID/g and 3.07 %ID/g | Organ distribution, liver [3, 9]: 2.94 %ID/g and 3.20 %ID/g and 3.49 %ID/g and 3.19 %ID/g | Organ distribution, tumor [3, 9]: 5.65 %ID/g and 3.51 %ID/g and 4.60 %ID/g | Tumor-to-blood ratio (TBR) [3, 9]: 1.46 and 0.76 and 1.26 and 1.01 | Tumor-to-kidney ratio (TKR) [3, 9]: 1.33 and 1.11 and 0.98 and 1.14 | Tumor-to-liver ratio (TLR) [3, 9]: 1.56 and 1.31 and 1.62 and 1.10 | Tumor-to-muscle ratio (TMR) [3, 9]: 3.57 and 3.36 and 4.87 and 3.03 | Organ distribution, bladder [3, 10]: 50.28±7.13 %ID/g | Organ distribution, kidney [3, 10]: 2.78±0.44 %ID/g | Organ distribution, liver [3, 10]: 2.88±0.08 %ID/g | Organ distribution, tumor [3, 10]: 4.62±0.51 %ID/g | Tumor-to-blood ratio (TBR) [3, 10]: 1.29±0.21 | Tumor-to-kidney ratio (TKR) [3, 10]: 1.70±0.10 | Tumor-to-liver ratio (TLR) [3, 10]: 1.60±0.16 | Tumor-to-muscle ratio (TMR) [3, 10]: 3.74±0.37 | Organ distribution, bladder [3, 11]: 35.81 %ID/g and 47.82 %ID/g and 69.95 %ID/g and 47.53 %ID/g | Organ distribution, blood [3, 11]: 3.44 %ID/g | Organ distribution, kidney [3, 11]: 2.39 %ID/g and 2.64 %ID/g and 4.04 %ID/g and 2.06 %ID/g | Organ distribution, liver [3, 11]: 2.67 %ID/g and 2.93 %ID/g and 3.06 %ID/g and 2.85 %ID/g | Organ distribution, tumor [3, 11]: 5.95 %ID/g and 3.52 %ID/g and 4.68 %ID/g | Tumor-to-blood ratio (TBR) [3, 11]: 1.85 and 0.85 and 1.36 and 1.11 | Tumor-to-kidney ratio (TKR) [3, 11]: 1.96 and 1.64 and 1.47 and 1.71 | Tumor-to-liver ratio (TLR) [3, 11]: 1.75 and 1.48 and 1.94 and 1.24 | Tumor-to-muscle ratio (TMR) [3, 11]: 3.66 and 3.17 and 4.80 and 3.32 | Organ distribution, bladder ([3]; 45 min post-injection, Mean±SEM, n = 4 mice): 53.81±7.59 %ID/g | Organ distribution, kidney [3, 12]: 2.16±0.21 %ID/g | Organ distribution, liver [3, 12]: 2.73±0.09 %ID/g | Organ distribution, tumor [3, 12]: 4.65±0.52 %ID/g | Tumor-to-blood ratio (TBR) [3, 12]: 1.38±0.25 | Tumor-to-kidney ratio (TKR) [3, 12]: 2.15±0.08 | Tumor-to-liver ratio (TLR) [3, 12]: 1.71±0.17 | Tumor-to-muscle ratio (TMR) [3, 12]: 3.88±0.41 | Tumor-to-blood ratio (TBR) [3, 13]: 1.4 ± 0.3 | Tumor-to-liver ratio (TLR) [3, 13]: 1.7 ± 0.2 | Tumor-to-muscle ratio (TMR) [3, 13]: 3.9 ± 0.4 | Organ distribution, bladder [3, 14]: 39.77 %ID/g and 49.32 %ID/g and 75.38 %ID/g and 50.79 %ID/g | Organ distribution, kidney [3, 14]: 1.99 %ID/g and 2.17 %ID/g and 2.73 %ID/g and 1.74 %ID/g | Organ distribution, liver [3, 14]: 2.47 %ID/g and 2.78 %ID/g and 2.91 %ID/g and 2.75 %ID/g | Organ distribution, tumor [3, 14]: 4.40 %ID/g and 6.01 %ID/g and 3.52 %ID/g and 4.68 %ID/g | Tumor-to-blood ratio (TBR) [3, 14]: 1.19 and 2.06 and 0.88 and 1.38 | Tumor-to-kidney ratio (TKR) [3, 14]: 2.35 and 2.03 and 2.20 and 2.02 | Tumor-to-liver ratio (TLR) [3, 14]: 1.89 and 1.58 and 2.07 and 1.28 | Tumor-to-muscle ratio (TMR) [3, 14]: 3.52 and 3.41 and 5.09 and 3.49 | clearance route ([3]; PET/CT, U87MG tumor-bearing mice): cleared mainly by the kidneys

From publication PMC11431137, “[^68Ga]Ga-DOTAGA-Glu(FAPi)2 Shows Enhanced Tumor Uptake and Theranostic Potential in Preclinical PET Imaging” (Diagnostics, 2024)
